Reference: US8389573B2, “Glycyrrhetinic acid derivatives” (Wellington Laboratories Inc., priority 2006, dated 2013)

Target: T1, PPARγ-coactivator interactions (Homo sapiens, UniProt P37231)
T1 construct: expressed in transfected cells; host or cells: SW480 cells, transient transfection (LipofectAMINE)
T1 sequence (P37231 238-503 limits assumed): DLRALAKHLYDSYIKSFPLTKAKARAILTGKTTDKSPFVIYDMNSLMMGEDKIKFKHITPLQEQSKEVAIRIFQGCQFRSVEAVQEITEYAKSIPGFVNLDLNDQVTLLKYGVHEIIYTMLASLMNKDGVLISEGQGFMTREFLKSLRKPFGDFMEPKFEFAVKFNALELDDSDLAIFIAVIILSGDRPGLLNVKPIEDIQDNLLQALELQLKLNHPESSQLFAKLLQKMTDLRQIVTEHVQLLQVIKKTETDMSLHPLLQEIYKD
Test: Mammalian two-hybrid assay (VP-PPARγ, GAL4-coactivator) in SW480 cells
Assay type: cell-based
Protocol: SW480 and HT29 cell lines were plated in 12-well plates at 1×10^5 cells/well in DMEM/F-12 media supplemented with 2.5% charcoal-stripped fetal bovine serum. After growth for 16 h, various amounts of DNA, i.e. Gal4Luc (0.4 μg), β-gal (0.04 μg), VP-PPARγ (0.04 μg), pMSRC1 (0.04 μg), pMSRC2 (0.04 μg), pMSRC3 (0.04 μg), pMPGC-1 (0.04 μg), pMDRIP205 (0.04 μg), and pMCARM-1 (0.04 μg) were transfected by LipofectAMINE (Invitrogen) according to the manufacturer's protocol. After 5 h of transfection, the transfection mix was replaced with complete media containing either vehicle (DMSO) or the indicated ligand for 20-22 h. Cells were then lysed with […] of 1× reporter lysis buffer, and 30 μl of cell extract was used for luciferase and β-galactosidase assays. Lumicount was used to quantitate luciferase and β-galactosidase activities, and the luciferase activities were normalized to β-galactosidase activity.

## COC(=O)[C@@]1(C)CC[C@]2(C)CC[C@]3(C)C(=CC(=O)[C@@H]4[C@@]5(C)C=C(C#N)C(=O)C(C)(C)[C@@H]5CC[C@]43C)[C@@H]2C1 [β-CDODA-Me, Methyl 2-cyano-3,11-dioxo-18β-oleana-1,12-dien-30-oate]
  PPARγ interaction with coactivators PGC-1 and SRC-1: induced transactivation
  ligand-induced interactions of SRC-2, SRC-3, CARM1, TRAP220 and SMRT with PPARγ: not observed
